Key:
MCF7 [1] = experiment: Cytotoxicity against human MCF7 cells after 72 hrs by LDH assay; type: functional, cell-based; conditions: MCF7, 72 h
Estrogen receptor [2] = target: T1, Estrogen receptor (Homo sapiens, UniProt P03372); experiment: Inhibition of estrogen receptor (unknown origin)
T1 sequence (P03372 whole entry): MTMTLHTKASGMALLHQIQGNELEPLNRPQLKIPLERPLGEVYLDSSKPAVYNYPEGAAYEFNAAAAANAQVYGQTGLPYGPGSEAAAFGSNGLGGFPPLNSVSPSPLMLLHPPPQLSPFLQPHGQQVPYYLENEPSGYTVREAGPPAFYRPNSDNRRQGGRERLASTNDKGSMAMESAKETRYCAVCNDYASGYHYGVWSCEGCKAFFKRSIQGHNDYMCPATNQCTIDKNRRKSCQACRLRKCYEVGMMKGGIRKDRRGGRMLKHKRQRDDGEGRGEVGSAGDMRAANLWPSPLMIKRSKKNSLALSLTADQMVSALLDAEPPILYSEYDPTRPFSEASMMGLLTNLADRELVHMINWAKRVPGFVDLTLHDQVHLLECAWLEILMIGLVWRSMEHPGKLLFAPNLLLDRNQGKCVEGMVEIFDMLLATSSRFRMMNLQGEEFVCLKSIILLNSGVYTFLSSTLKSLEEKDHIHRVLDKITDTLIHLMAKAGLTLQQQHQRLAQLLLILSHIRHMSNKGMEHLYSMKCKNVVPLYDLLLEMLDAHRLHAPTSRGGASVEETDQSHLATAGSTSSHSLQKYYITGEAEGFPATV

MCF7 [3] = experiment: Cytostatic activity against human MCF7 cells; type: functional, cell-based
[4] = target: T2, Prostaglandin G/H synthase 2 (Ovis aries, UniProt P79208); experiment: Inhibition of ovine COX2 using arachidonic acid as substrate assessed as reduction in PGF2alpha production preincubated for 5 mins followed by substrate addition measured after 2 mins by enzyme immunoassay
T2 sequence (P79208 whole entry): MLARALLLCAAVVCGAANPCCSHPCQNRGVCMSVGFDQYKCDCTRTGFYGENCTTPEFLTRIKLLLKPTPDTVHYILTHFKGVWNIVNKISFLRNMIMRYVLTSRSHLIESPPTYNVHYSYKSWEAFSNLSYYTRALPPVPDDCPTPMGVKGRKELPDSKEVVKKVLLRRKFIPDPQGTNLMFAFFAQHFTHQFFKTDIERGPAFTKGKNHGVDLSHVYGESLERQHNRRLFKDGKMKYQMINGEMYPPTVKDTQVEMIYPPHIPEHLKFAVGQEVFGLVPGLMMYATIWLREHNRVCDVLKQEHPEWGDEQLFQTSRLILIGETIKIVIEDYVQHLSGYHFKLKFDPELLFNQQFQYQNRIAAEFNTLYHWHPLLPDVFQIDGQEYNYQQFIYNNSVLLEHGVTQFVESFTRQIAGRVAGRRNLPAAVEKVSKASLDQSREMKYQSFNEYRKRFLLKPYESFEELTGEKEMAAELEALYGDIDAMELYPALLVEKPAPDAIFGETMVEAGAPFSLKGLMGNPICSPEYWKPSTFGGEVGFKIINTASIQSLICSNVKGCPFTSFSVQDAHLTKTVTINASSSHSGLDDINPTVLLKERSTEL

Ovis aries = species: Ovis aries; experiment: Selectivity index, ratio of IC50 for ovine COX1 to IC50 for ovine COX2
Estrogen receptor [5] = target: T1, Estrogen receptor; experiment: Binding affinity to estrogen receptor (unknown origin)
Homo sapiens [6] = species: Homo sapiens; experiment: Selectivity index, ratio of IC50 for of ERalpha receptor (unknown origin) to IC50 for ERbeta receptor (unknown origin)
MCF7 [7] = experiment: Antiproliferative activity against human MCF7 cells; type: functional, cell-based
[8] = target: T3, Estrogen receptor (Homo sapiens) (UniProt P03372); experiment: Potency index, ratio of tamoxifen IC50 to compound IC50 for binding affinity to ERalpha receptor (unknown origin)
T3 sequence (whole entry): T1 sequence (P03372 whole entry)

Homo sapiens [9] = species: Homo sapiens; experiment: Ratio of selectivity index for test compound to selectivity index for compound for ERalpha (unknown origin) over ERbeta (unknown origin)

Q: Which IC50 (MCF7 [1]) does the source give for CC/C(Cc1ccccc1)=C(\c1ccccc1)c1ccc(OCCN2CCCC2)cc1 here?
A: The IC50 was 12.5 µM.

Q: For CN1CCN(CCOc2ccc(C(=C(C#N)c3ccccc3)c3ccc(OCCN4CCN(C)CC4)cc3)cc2)CC1, which IC50 (Estrogen receptor [2]) is on record?
A: Its IC50 is over 10 µM.

Q: CC/C(=C(\c1ccccc1)c1cnn(OCCCN(C)C)c1)c1ccccc1 was tested. Which IC50 (MCF7 [3]) did it give?
A: The IC50 was 3 µM.

Q: With CC/C(=C(\c1ccccc1)c1ccc(OCCN(C)C)cc1)c1ccccc1 [TAMOXIFEN] as the compound, how does the IC50 (MCF7 [3]) read?
A: Its IC50 is 2.7 µM.

Q: CCN(CC)CCOc1ccc(C(=C(C#N)c2ccccc2)c2ccc(OCCN(CC)CC)cc2)cc1 was tested. Which IC50 (Estrogen receptor [2]) did it give?
A: Its IC50 is over 10 µM.

Q: With CCCCC(=C(c1ccccc1)c1ccccc1)c1ccc(S(C)(=O)=O)cc1 as the compound, how does the IC50 [4] read?
A: Its IC50 is 0.014 µM.

Q: What about the Ratio IC50 (Ovis aries) of the same compound?
A: Its Ratio IC50 is over 7140.

Q: What does the source list for CCC(Cc1ccccc1)=C(c1ccc(O)cc1)c1ccc(OCCN2CCCC2)cc1?
A: IC50 (Estrogen receptor [5]): 0.02 µM; Ratio IC50 (Homo sapiens [6]): 12; IC50 (MCF7 [7]): < 0.25 µM; Ratio IC50 [8]: 80; Ratio IC50 (Homo sapiens [9]): 900

Q: How did the IC50 (MCF7 [3]) turn out when CCc1c(-c2ccccc2)c2cnn(OCCCN(C)C)c2c2ccccc12 was run?
A: Its IC50 is 1 µM.

Reference: ChEMBL document CHEMBL4251582 (Eur J Med Chem, 2018)
